In ChEMBL document CHEMBL4651402, “Screening of ~5500 FDA-approved drugs and clinical candidates for anti-SARS-CoV-2 activity” (2021):

System: SARS-CoV-2
Assay: microbe, parasite or virus in culture
Details: Severe acute respiratory syndrome coronavirus 2, Vero C1008, 48 h

Compound	IC50 [µM]	IC50 (read-out: pIC50 (converted)) [µM]
COc1cc(/C=C/c2ccc(O)cc2)cc(OC)c1 [PTEROSTILBENE]	> 20	> 20
C/C=C(\C)C(=O)O[C@@H]1c2c(ccc3ccc(=O)oc23)OC(C)(C)[C@@H]1OC(C)=O [PTERYXIN]	> 20	> 20
COC(=O)Nc1cccc(C)c1CNc1cccn2c(C)c(C)nc12 [PUMAPRAZOLE]	> 20	> 20
O=C(N[C@H]1CN2CCC1CC2)c1c[nH]c2ccsc2c1=O [PUMOSETRAG]	> 20	> 20
NCCCCN [PUTRESCINE]	> 20	> 20
CCC(C)SSc1ncc[nH]1 (stereo unspecified) [PX-12]	> 20	> 20
c1ccc2c(c1)Sc1ccccc1N2CCN1CCCC1 [PYRATHIAZINE]	> 20	> 20
NC(=O)c1cnccn1 [PYRAZINAMIDE]	> 20	> 20
NC(=O)c1[nH]nc([C@@H]2O[C@H](CO)[C@@H](O)[C@H]2O)c1O [PYRAZOFURIN]	> 20	> 20
CC(C)(C)c1ccc(CSc2cnn(C(C)(C)C)c(=O)c2Cl)cc1 [PYRIDABEN]	> 20	> 20
CN(C)C(=O)Oc1ccc[n+](C)c1 [PYRIDOSTIGMINE]	> 20	> 20
Cc1ncc(COP(=O)(O)O)c(C=O)c1O [PYRIDOXAL PHOSPHATE ANHYDROUS]	> 20	> 20
Cc1ncc(CO)c(C=O)c1O [PYRIDOXAL]	> 20	> 20
Cc1ncc(CO)c(CN)c1O [PYRIDOXAMINE]	> 20	> 20
Cc1ncc(CO)c(CO)c1O [PYRIDOXINE]	> 20	> 20
COc1ccc(CN(CCN(C)C)c2ccccn2)cc1 [PYRILAMINE]	> 20	> 20
CCc1nc(N)nc(N)c1-c1ccc(Cl)cc1 [PYRIMETHAMINE]	> 20	> 20
[O-][n+]1ccccc1S [PYRITHIONE]	> 20	> 20
CCC1(CC)C(=O)C=CNC1=O [PYRITHYLDIONE]	> 20	> 20
Cc1ncc(CSSCc2cnc(C)c(O)c2CO)c(CO)c1O [PYRITINOL]	> 20	> 20
Oc1cccc(O)c1O [PYROGALLOL]	> 20	> 20
COc1ccc2nc3cc(Cl)ccc3c(Nc3cc(CN4CCCC4)c(O)c(CN4CCCC4)c3)c2n1 [PYRONARIDINE]	> 20	> 20
Cc1cccc(C)c1NC(=O)CN1CCCC1 [PYRROCAINE]	> 20	> 20
CC(=O)OC(Cc1ccccc1)(c1ccccc1)C(C)CN1CCCC1 (stereo unspecified) [PYRROLIPHENE]	> 20	> 20
O=[N+]([O-])c1c(Cl)cccc1-c1c[nH]cc1Cl [PYRROLNITRIN]	> 20	> 20
CC(=O)C(=O)O [PYRUVATE]	> 20	> 20

Compound	IC50 [µM]	IC50 (read-out: pIC50 (converted)) [µM]
C[C@@H]1C(=O)NC2=Nc3cccc(Cl)c3CN21 [QUAZINONE]	> 20	> 20
COC(=O)c1nc2cc(Cl)c3cccnc3c2o1 [QUAZOLAST]	> 20	> 20
CO[C@H]1[C@H](O)[C@@H](O)[C@H](O)[C@H](O)[C@H]1O [QUEBRACHITOL]	> 20	> 20
O=c1c(O)c(-c2ccc(O)c(O)c2)oc2cc(O)cc(O)c12 [QUERCETIN]	> 20	> 20
OC(c1ccccc1)(c1ccccc1)C1CN2CCC1CC2 (stereo unspecified) [QUIFENADINE]	> 20	> 20
CCC1NC(=O)c2cc(S(N)(=O)=O)c(Cl)cc2N1 (stereo unspecified) [QUINETHAZONE]	> 20	> 20
O=C(Oc1ccc2c(c1)CCCN2C(=O)C(Cl)Cl)c1ccco1 [QUINFAMIDE]	> 20	> 20
C=C[C@H]1CN2CC[C@H]1C[C@H]2[C@H](O)c1ccnc2ccc(OC)cc12 [QUININE]	> 20	> 20
COc1cc(NCCCC(C)N)c2ncccc2c1 (stereo unspecified) [QUINOCIDE]	> 20	> 20
c1ccc2ncccc2c1 [QUINOLINE]	> 20	> 20
O=C(O)c1cccnc1C(=O)O [QUINOLINIC ACID]	> 20	> 20
CCOP(=S)(Oc1cccc2cccnc12)c1ccccc1 (stereo unspecified) [QUINTIOFOS]	> 20	> 20
c1ccc2nc(N3CCNCC3)ccc2c1 [QUIPAZINE]	> 20	> 20
CN(C)S(=O)(=O)c1ccc2c(c1)N(C1CN3CCC1CC3)c1ccccc1S2 (stereo unspecified) [QUISULTAZINE]	> 20	> 20
CC(C)(C)c1cc(NC(=O)Nc2ccc(-c3cn4c(n3)sc3cc(OCCN5CCOCC5)ccc34)cc2)no1 [QUIZARTINIB]	> 20	> 20
CCOC(=O)[C@H](C)NP(=O)(COCCn1cnc2c(NC3CC3)nc(N)nc21)N[C@@H](C)C(=O)OCC [RABACFOSADINE]	> 20	> 20
COCCCOc1ccnc(C[S+]([O-])c2nc3ccccc3[nH]2)c1C (stereo unspecified) [RABEPRAZOLE]	> 20	> 20
Cc1cnc(NC(=O)Nc2cc(Br)c(C)cc2OC[C@@H]2CNCCO2)cn1 [RABUSERTIB]	> 20	> 20
CCCCC1OC(=O)c2ccccc21 (stereo not drawn) [RAC-3-N-BUTYLPHTHALIDE]	> 20	> 20
CC(Oc1ccc(Cl)cc1Cl)C(=O)O (stereo not drawn) [RAC-DICHLORPROP]	> 20	> 20
CC(=O)SCC(Cc1ccccc1)C(=O)NCC(=O)OCc1ccccc1 (stereo unspecified) [RACECADOTRIL]	> 20	> 20
CN1CCC23CCCCC2C1Cc1ccc(O)cc13 (stereo not drawn) [RACEMORPHAN]	> 20	> 20
CNCC(O)c1ccc(O)c(O)c1 (stereo unspecified) [RACEPINEPHRINE]	> 20	> 20
CCN1CCC[C@H]1CNC(=O)c1c(O)c(Cl)cc(Cl)c1OC [RACLOPRIDE]	> 20	> 20
CC(=O)NC[C@H]1CN(c2ccc(-c3ccc(CNCc4cnn[nH]4)cc3)c(F)c2)C(=O)O1 [RADEZOLID]	> 20	> 20
Cn1c(Nc2ccc(C(F)(F)F)cc2)nc2cc(Oc3ccnc(-c4ncc(C(F)(F)F)[nH]4)c3)ccc21 [RAF-265]	> 20	> 20

Compound	IC50 [µM]	IC50 (read-out: pIC50 (converted)) [µM]
O=C(Nc1ccc(Oc2ccc(Cl)cc2)c(Cl)c1)c1cc(I)cc(I)c1O [RAFOXANIDE]	> 20	> 20
C[C@H](NCc1ccc(OCc2ccccc2F)cc1)C(N)=O [RALFINAMIDE]	> 20	> 20
CC(C)(C)Cn1c(N)nc2ccc(-c3[nH]c(C(C)(C)C)nc3-c3ccc(F)cc3)nc21 [RALIMETINIB]	> 20	> 20
Cc1cccc(Cl)c1NC(=O)/C=C1\SCC(=O)N1C [RALITOLINE]	> 20	> 20
O=C(c1ccc(OCCN2CCCCC2)cc1)c1c(-c2ccc(O)cc2)sc2cc(O)ccc12 [RALOXIFENE]	> 20	> 20
Cc1c(NC(C)C)c(=O)n(-c2ccccc2)n1C [RAMIFENAZONE]	> 20	> 20
Cn1cc(C(=O)[C@@H]2CCc3[nH]cnc3C2)c2ccccc21 [RAMOSETRON]	> 20	> 20
CNC(=C[N+](=O)[O-])NCCSCc1ccc(CN(C)C)o1 [RANITIDINE]	> 20	> 20
COc1ccccc1OCC(O)CN1CCN(CC(=O)Nc2c(C)cccc2C)CC1 (stereo unspecified) [RANOLAZINE]	> 20	> 20
C#CCN[C@@H]1CCc2ccccc21 [RASAGILINE]	> 20	> 20
CN(C)Cc1nccn1-c1ccc(NC(=O)c2cc(C(F)(F)F)nn2-c2ccc3onc(N)c3c2)c(F)c1 [RAZAXABAN]	> 20	> 20
O=C(NC(Cc1cc(=O)[nH]c2ccccc12)C(=O)O)c1ccc(Cl)cc1 (stereo unspecified) [REBAMIPIDE]	> 20	> 20
CNC(=O)c1cc(Oc2ccc(NC(=O)Nc3cc(C(C)(C)C)nn3-c3ccc4ncccc4c3)c(F)c2)ccn1 [REBASTINIB]	> 20	> 20
COc1ccc(-c2cc(=O)c3c(OC)cc(OCC(=O)O)cc3o2)cc1OC [RECOFLAVONE]	> 20	> 20
COc1cc(F)c(F)c(Nc2ccc(I)cc2F)c1NS(=O)(=O)C1(C[C@H](O)CO)CC1 [REFAMETINIB]	> 20	> 20
CNC(=O)c1cnn(-c2nc(N)c3ncn([C@@H]4O[C@H](CO)[C@@H](O)[C@H]4O)c3n2)c1 [REGADENOSON ANHYDROUS]	> 20	> 20
Cc1oc(-c2ccccc2)nc1CCOc1ccc(CC2C(=O)NOC2=O)cc1 (stereo unspecified) [REGLITAZAR]	> 20	> 20
CNC(=O)c1cc(Oc2ccc(NC(=O)Nc3ccc(Cl)c(C(F)(F)F)c3)c(F)c2)ccn1 [REGORAFENIB]	> 20	> 20
COc1ccc(S(=O)(=O)N2c3ccc(Cl)cc3[C@](O)(c3ccccc3Cl)[C@@H]2C(=O)N2CCC[C@H]2C(N)=O)cc1OC [RELCOVAPTAN]	> 20	> 20
CC(Cc1ccccc1)(NC(=O)CN)c1ccccc1 (stereo unspecified) [REMACEMIDE]	> 20	> 20
C=CC(=O)N(C)CCOc1c(N)ncnc1-c1cc(F)cc(NC(=O)c2ccc(C3CC3)cc2F)c1C [REMIBRUTINIB]	> 20	> 20
COc1cccc(OC)c1-c1cc(C(=O)NC2(C(=O)O)C3CC4CC(C3)CC2C4)nn1-c1ccnc2cc(Cl)ccc12 (stereo unspecified) [REMINERTANT]	> 20	> 20
CCN1CCC[C@H]1CNC(=O)c1c(OC)ccc(Br)c1OC [REMOXIPRIDE]	> 20	> 20
COc1cc(N)c(Cl)cc1C(=O)NC1CCN2CCCC1C2 (stereo unspecified) [RENZAPRIDE]	> 20	> 20
CCOc1cc(CC(=O)N[C@@H](CC(C)C)c2ccccc2N2CCCCC2)ccc1C(=O)O [REPAGLINIDE]	> 20	> 20
CCOCc1nc2c(N)nc3ccccc3c2n1CC(C)(C)O [RESIQUIMOD]	> 20	> 20
